# Laboratory results published in US20050261246A1, “Methods for treating inflammatory and autoimmune diseases” (priority 2004, published 2005).
# Assays:
# [1] = Body weight and tolerability in arthritic and non-arthritic rats of the AA study; format: in vivo, rat
# Excerpt: (§1) Adult male Lewis rats (200-250 g) were purchased from Charles River Laboratories, Raleigh, N.C. and housed two per cage. The animals were allowed to acclimate to the Sun Health Research Institute's vivarium for 7 days prior to the start of the experiment. The animals were maintained on a 12-h off/on light schedule. For AA rats rodent Diet (Purina Lab Diet 5001) was placed in the bottom of the cage and water was supplied using long-stemmed sipper tubes for easy access to food and water. […] Animals were weighed and observed daily to ensure adequate weight gain and good general health. Body weights and footpad measures were started 1 week prior to the first adjuvant injection to acclimate the animals to these mild stresses and obtain baseline data. Other than the development of arthritis, the good health of the animals was maintained throughout the course of the experiments. Protocols for the use and care of the animals in the study were approved prior to beginning the experiments by the Sun Health Research Institute Animal Use and Care Committee and complied with NIH guidelines for the humane use and care of research animals. Dorsoplantar footpad measurements were completed every other day. Prior to sacrifice the animals were given a 1.0 ml intraperitoneal (i.p.) injection of 8% chloral hydrate in sterile saline and radiographs were taken of their hind limbs to assess disease severity. The animals were then sacrificed using an overdose of chloral hydrate.
# (§2) Lewis rats were randomly assigned into five experimental groups of four animals per group. The experimental groups were 1) saline/M. Butyricum suspended in saline (non-arthritic; control for drug and antigen challenge), 2) sodium narcistatin/M. Butyricum suspended in saline (non-arthritic; drug control for antigen challenge), 3) no treatment-CFA (arthritic; control for stress of injections), 4) saline-CFA (arthritic; control for drug treatment), and 5) sodium-narcistatin-CFA (arthritic) treatments. The experiment was completed with an N=4 then repeated with an additional N=4. […]
# [2] = tested on: splenic myeloid cells (CD11b+), T and B cells; assay: Splenic cell populations in SNS-treated rats (immunostaining, flow cytometry); format: in vivo, rat
# Procedure: B. Summary of myeloid cells (CD11b+ cells) present in various treatment groups. The statistical analysis was performed using t-test (*, N=4). SMB-saline, saline treated, non-arthritic, mycobacterium challenged; SMB-SNS, SNS treated, non-arthritic, mycobacterium challenged; CFA-saline, arthritic Saline treated; CFA-No-RX, arthritic no treatment (stress control); CFA-SNS, SNS treated arthritic. The experimental groups are the same as those in FIGS. 4-7.
# One of characteristics of inflammatory response is an elevation of myeloid cells. […] The cells were stained with fluorescence-conjugated antibodies specific to CD3, CD45R, and CD11b, followed by analyses using flow cytometry to reveal T, B, and myeloid cells, respectively. Lymphoid and myeloid cells were distinguished based on their differing forward and side scatter patterns.
# [3] = tested on: TNFα production; assay: TNFα production from splenic cultures of Balb/c mice treated with SNS; format: in vivo, mouse; conditions: non-CAIA Balb/c mice treated 5 days, p<0.01
# Procedure: Balb/c mice (n=5) were treated i.p. with SNS at 5 mg/Kg or with PBS for 5 consecutive days. Spleen were isolated on the next day after the last SNS injection and the splenocytes were stimulated with anti-CD3 antibody or LPS for 24 hrs, and supernatant were analyzed for TNF-α production.
# Isolated splenic cells were cultured with either immobilized […] (50 ug/ml) or 1 ug/ml LPS for […]. Cells without any stimulation were included as control. The supernatants from these cultures were analyzed for TNFα using BD™ CBA Mouse Inflammatory Kit (BD Biosciences), according to the manufacture's procedure. The average TNF concentration in each culture was derived from 2-3 independent experiments of 4-5 mice per group per experiment. No arthritis was induced in these experiments. […] Thus, TNFα production was reduced in the splenic culture of SNS-treated mice, in response to T cell activation by anti-CD3 antibody.
# [4] = tested on: Lewis rats with Adjuvant-Induced Arthritis; assay: Adjuvant-induced arthritis (AA) rat model: footpad width, radiographs, spleen weight; format: in vivo
# Procedure: Summary: Adjuvant-Induced Arthritis (“AA”) was induced by intradermal injection of complete Freund's adjuvant (CFA) into the base of the tail of Lewis rats. Controls received intradermal injections of the arthritogenic antigen, M. butyricum suspended in saline. […] AA and control rats were given once-daily intraperitoneal (i.p.) injections of narcistatin (5 mg/Kg/day, in 250 μl sterile saline), vehicle, or no treatment initiated at disease onset and continued through severe disease.
# as §1
# Sodium narcistatin was synthesized as previously described (27). CFA was prepared by emulsifying Mycobacterium butyricum (0.03 g dried and heat killed; Difco, Detroit, Mich. in 10 ml sterile mineral oil). M. butyricum (0.03 g) also was suspended in 10 ml sterile saline. The CFA and M. butyricum in saline were prepared by grinding the M. butyricum with a mortar and pestle until the lyophilized bacteria had turned from a light beige to an eggshell white powder. The mineral oil or saline was then slowly worked into the heat-killed bacteria using the mortar and pestle. The suspensions were treated with a sonic dismembraner for 5 min to ensure that the bacterial cell wall remained suspended in the mineral oil or saline until the animal injections. While there is variability in severity of disease development between the batches of adjuvant, there is very little variability within each batch. All animals in each experiment were challenged with the same preparation of adjuvant and 100% of the animals developed arthritis with similar timing of disease onset.
# as §2, with “N=4. The data from each group in the first and repeated experiment were compared. No statistical differences between the findings from these repeat experiments were found; therefore, the data was combined to give an N=8 for each experimental group. CFA or saline/M. Butyricum injections were given on experimental day 1.” for “N=4.”
# [5] = AA rats, 5 mg/Kg/day i.p., vs vehicle treated AA rats
compound,measurement,setting,value
"O=C1N[C@@H]2C(=C[C@H](O)[C@H]3OP(=O)(O)O[C@H]32)c2cc3c(c(O)c21)OCO3 [SNS, sodium narcistatin]","tolerability / overt toxicity, arthritic rats",[1]; body weights and gross evaluation of internal organs at end point,no general signs of overt toxicity were apparent
same,"body weight, non-arthritic control rats","[1]; day 28, chronic treatment, vs saline-treated non-arthritic controls, P<0.001",significantly decreased body weights
same,"body weight, arthritic rats","[1]; day 28, vs untreated or saline-treated arthritic rats",not significantly different
same,splenic myeloid population (CD11b+ cells),"[2]; rats of the AA study, especially SNS/non-arthritic group",greatly reduced this myeloid population
same,numbers of splenic T and B lymphocytes,[2]; various treatment groups,comparable numbers of T and B lymphocytes
same,TNFα in splenic cultures stimulated with anti-CD3,[3],significant reduction of TNFα
same,"reduction of bone loss, as measured by radiographic analysis",[4]; [5],~50%
same,"reduction of hind limb inflammation, as measured by dorsoplantar width",[4]; [5],~70%
same,time of disease onset,[4]; CFA-challenged rats,did not change the time of disease onset
same,soft tissue swelling of the dorsoplantar footpads,"[4]; CFA-challenged rats, day 23 to day 28 post-immunization, vs vehicle-treated arthritic rats",significantly decreased the soft tissue swelling
same,redness and soft tissue swelling of hind limbs,"[4]; arthritic rats, daily treatment day 10 through day 28, photomicrographs day 28",dramatically decreased the redness and soft tissue swelling
same,bone destruction and cartilage loss in radiographs,"[4]; arthritic rats, day 28, vs saline-treated arthritic rats",decreases in bone destruction (mainly osteoporosis and erosions) and cartilage loss
same,radiographic scores of ankle joints,"[4]; arthritic rats, day 28, vs vehicle or no treatment, P<0.05",significantly lower radiographic scores
same,"spleen weight, arthritic rats","[4]; day 28, vs Saline-CFA",blocked this increase in spleen weight
same,"spleen weight, antigen-challenged non-arthritic rats","[4]; day 28, vs saline",did not differ
same,footpad width in non-arthritic animals,"[4]; non-arthritic, vehicle vs drug",no differences in footpad width
